The values below come from patent US7981876B2, “Polymorphic and amorphous salt forms of squalamine dilactate” (priority 2005, dated 2011).

The nature of data set [1]: Accelerated stability study (temperature-based, four weeks) of four salt forms, reversed-phase HPLC of o-phthaldialdehyde derivatized samples. In kind it is physicochemical. The method, then:
An accelerated stability study (temperature-based) lasting four weeks was performed on squalamine in four different salt forms. The four salt forms were: dihydrochloride, diacetate, dilactate and D-digluconate. The samples were subjected to temperatures of 40° C., 60° C. and 80° C. The following table summarizes the results of % purity of main peak, squalamine, based on total integrated area. The analysis was performed using reversed-phase HPLC of o-phthaldialdehyde derivatized samples.

For data set [2], the system named is tails of CD-1®BR mice. Put plainly: Local irritancy of 5-day repeated intravenous injections of squalamine salt forms in mice. In kind it is in vivo. From the text: A Study of Local Irritancy of 5-Day Repeated Intravenous Injections of Different Salt Forms (Ditrifluoroacetate, Dilactate, Digluconate, Diacetate) of MSI-1256 (Squalamine) in Mice
Objective: To determine the local irritancy of 5-day repeated daily intravenous doses of squalamine salt forms in tails of CD-1®BR mice.
Material and Methods: (Animals): Forty-eight male CD-1®BR mice (Charles River Lab). Mean body weight at study initiation was 20.6 gm. (Housing Environment): Mice were housed as groups (maximum 10 mice/box) in plastic mouse boxes with hardwood chip bedding and wire lids. They had access to food (Purina Mouse Chow) and water in bottles ad lib. The boxes were housed in isolator racks that were supplied with one-pass through filtered room air. The room in which the animals were housed was on a 12-hour on/12-hour off light cycle and had controlled temperature (range: 67-76° F.) and humidity (range: 40-70% relative humidity).
Solution prep: A 0.36 mg/mL solution of squalamine ditrifluoroacetate salt (equivalent to 0.25 mg/mL squalamine ditrifluroacetate active moiety) was prepared in D5W. A 0.31 mg/mL solution of squalamine diacetate salt (equivalent to 0.25 mg/mL squalamine diacetate active moiety) was prepared in D5W. A 0.33 mg/mL solution of squalamine dilactate salt (equivalent to 0.25 mg/mL squalamine dilactate active moiety) was prepared in D5W. A 0.45 mg/mL solution of squalamine digluconate salt (equivalent to 0.25 mg/mL squalamine digluconate active moiety) was prepared in D5W. A 1.0 mg/mL solution of magainin-2-amide (positive control) was prepared in D5W. Protocol: Mice were randomly assigned to six groups (8 mice/group) and received daily intravenous (i.v.) injections of solutions of D5W or squalamine salts in the tail vein for five days (study days 0, 1, 2, 3, and 4). […] One group of eight mice received test article magainin-2-amide (10 mg/kg/day; 10 mL/kg/day of a 1 mg/mL solution), which was previously determined to be local vein irritant, as a positive control. Mice were not injected with test article if severity of bruising or swelling (edema) warranted the omission of the injection. Survival was monitored and clinical signs were observed daily for five days of administration of squalamine salts and four days after the last dose (Study Day 8). Clinical signs of irritancy, edema, and bruising were made on days 1, 2, 3, and 4 approximately 24-hours after each injection and immediately prior to that day's injection. The pHs of the solutions of all test articles except magainin-2-amide were checked on Study Day 3. (The same solutions were used throughout the study so a similar pH on all study days may be assumed).

A short description of data set [3]: Heat stress stability at 70° C. for three days, HPLC with ELSD detection. The class given is physicochemical. The method, then: Samples of amorphous squalamine dilactate and squalamine dilactate recrystallized from ethanol as described in Example 5 were placed in scintillation vials and heated in an oven at 70° C. for three days. A portion of each heat stressed sample was then analyzed by HPLC with ELSD detection and the results compared with the HPLC analysis of unstressed material.

Where [4] appears, read: Heat Stressed, 70° C. for three days.

Take squalamine dilactate: the “% purity of main peak, squalamine, based on total integrated area” value (shortened to “% purity of main peak, squalamine, based”) in data set [1] (4w 40° C.) was found to be 80.9%; in data set [1] (4w 60° C.), 80.6%; in data set [1] (4w 80° C.), 70.9%; in data set [1] (T = 0) it was 91.8%. In addition, in data set [1] (four weeks at 40-80° C., compared to the diacetate and digluconate salts), the “stability under increasingly severe conditions” value was “surprisingly stable”.
As for squalamine digluconate, the “% purity of main peak, squalamine, based” value in data set [1] (4w 40° C.) is on record as 72.6%; in data set [1] (4w 60° C.), 60.7%; in data set [1] (4w 80° C.), 4.9%; in data set [1] (T = 0), 87.8%. In data set [2] (2.5 mg/kg/day i.v. tail vein for five days, 0.25 mg/mL solutions in D5W, compared with squalamine diacetate and ditrifluoroacetate), the “tolerance of treatment (swelling, bruising, irritation of tails)” value is recorded as “tolerated slightly better”.
As to squalamine diacetate, the “% purity of main peak, squalamine, based” value was 87.3% in data set [1] (4w 40° C.), 81.5% in data set [1] (4w 60° C.), 62.9% in data set [1] (4w 80° C.) and 94.4% in data set [1] (T = 0). Besides, the “necrotic mouse tail (mice affected/group)” value in data set [2] (mouse, in vivo) is 1/8.
Regarding squalamine ditrifluoroacetate, in data set [2] (mouse, in vivo), the “mouse tail fell off (mice affected/group)” value was 1/8 and the “necrotic mouse tail (mice affected/group)” value is 1/8.
Turning to `CC(C)[C@@H](CC[C@@H](C)[C@H]1CC[C@H]2[C@@H]3[C@H](O)C[C@H]4C[C@@H](NCCCNCCCCN)CC[C@]4(C)[C@H]3CC[C@]12C)OS(=O)(=O)O.C[C@H](O)C(=O)O.C[C@H](O)C(=O)O` [Crystallized Squalamine], in data set [3] (70° C. for three days vs unstressed), the “change in the percentage of the lactylamide impurity when heat stressed” value was “no significant increase”. In data set [3] (setting [4]), the “24 S Isomer” value came out at 0.714%, the Lacrylamide stood at 0.087% and the Squalamine was 99.168%. Moreover, in data set [3] (Unstressed), the “24 S Isomer” value was 0.715%, the Lacrylamide was found to be 0.070% and the Squalamine is 99.187%.
